Measured values as given in patent US20210395309A1, “PEPTIDE-DRUG CONJUGATES” (Hong Kong Baptist University, priority 2020, published 2021).
Entries after “also recorded” stand apart in the source; their conditions may differ. Read-outs that look alike come from different tables or passages of the source. Where a SMILES comes first, the peptide text is derived from it. The star is where a group is joined. Paclitaxel(2'-O-succinyl) = CC(=O)O[C@H]1C(=O)[C@@]2(C)[C@H]([C@H](OC(=O)c3ccccc3)[C@]3(O)C[C@H](OC(=O)[C@H](OC(=O)CCC(=O)*)[C@@H](NC(=O)c4ccccc4)c4ccccc4)C(C)=C1C3(C)C)[C@]1(OC(C)=O)CO[C@@H]1C[C@@H]2O

How the values were obtained:
[1] = test system: HEK293T (ACE-negative) cells; test: MTT cytotoxicity assay in ACE-negative HEK293T; type: cell-based, human; settings: 48 h, mean (95% CI)
Description: (§1) MTT assays were performed to study the in vitro antitumor effects of BPP-PTX conjugate as well as free PTX and BPP in various ACE-negative and ACE-positive cell lines. Briefly, the cells (5,000 per well) were seeded in 96-well plates 24 h before treatment. The different drug formulations at concentrations of 0.01-1000 nM PTX or 0.01-1000 nM BPP-PTX and free BPP were added. The cells were cultured for another 48 h. 20 μL of 3-(4,5-dimethylthiazol-2-yl)-2,5-diphenyltetrazolium bromide (MTT) solution (5 mg/mL) was added. The cells were further cultured for 4 h, the medium was removed, and 150 μL DMSO was added to dissolve the MTT-formazan crystals. The optical density (O.D.) values for the untreated group were set as 100% viability. Independent experiments were performed in triplicate.
(§2) Each experiment was performed at least three times. GraphPad Prism 6.0 software was used for IC50 calculations and statistical analyses, including student t-test and two-way ANOVA.

[2] = test system: MDA-MB-231 (ACE-positive) cells; test: MTT cytotoxicity assay in ACE-positive TNBC MDA-MB-231; type: cell-based, human; settings: 48 h, mean (95% CI)
Description: as §1, §2

[3] = for body weight decrease compared with control mice: day 28
Description: Mice were kept at room temperature 25° C. with an alternating 12 h light-dark cycle and were allowed access to food and water. […] MDA-MB-468 cells (5×10^6 cells per mouse) were suspended in PBS and inoculated subcutaneously into the fourth mammary fat pad of athymic nude mice. Tumor growth was monitored every four days by measuring two perpendicular diameters with calipers. […] The tumors were measured with calipers every day, and tumor volumes were calculated using the following formula: a^2×b×0.4, where “a” is the smallest diameter and “b” is the diameter perpendicular to “a”. At the end of the experiment, the mice were sacrificed, and the tumor weights of each animal were analyzed. Blood samples (˜100 μL) were taken from the retro-orbital plexus in heparinized capillary tubes (Modulohm A/S, Herlev, Denmark). Total white blood cell counts were determined manually for each sample using a Neubauer chamber (GMBH, Wertheim, Germany).

[4] = test system: MDA-MB-468 (ACE-positive) cells; test: MTT cytotoxicity assay in ACE-positive TNBC MDA-MB-468; type: cell-based, human; settings: 48 h, mean (95% CI)
Description: as §1, §2

MDA-MB-468 cells [5] = test: TNBC orthotopic mouse model, tumor growth; type: in vivo
Description: To test the in vivo efficacy and toxicity of BPP-PTX, an orthotopic mouse model was established. ACE-positive MDA-MB-468 cells were injected orthotopically in the mammary fat pads of the female athymic nude mouse. Once mice attained palpable tumors, they were randomly divided into four groups and treated for 28 days with PBS, free PTX (2.4 μmol/kg), low dose BPP-PTX (2.4 μmol/kg), and high-dose BPP-PTX (9.6 μmol/kg), every 4 days by intraperitoneal injection (i.p.). Tumor growth was monitored by measuring tumor volume every 4 days with a caliper rule. On day 4, after the first injection, the effect of the drugs was not yet detectable since average tumor volumes, as measured with the caliper, were similar in the four groups of mice. […] On day 28, the average tumor volume of mice treated with low-dose BPP-PTX had decreased by about 15% compared to animals treated with free PTX, and by 54% compared to control animals (PBS). Meanwhile, the average tumor volume of mice treated with high-dose BPP-PTX, had decreased by about 30% compared to animals treated with free PTX, and by 62% compared to control animals (FIGS. 5A and 5B). Consistently, the average tumor weight of mice treated with low-dose BPP-PTX was 0.20 g (0.17, 0.24) lower than that of mice treated with free PTX (0.26 g (0.21, 0.31)) and control mice (0.43 g (0.37, 0.49)).

HEK293T-ACE cells = test: Cytotoxicity in ACE-overexpressed HEK293T-ACE versus control HEK293T; type: cell-based, human; settings: 1-, 10-, and 100 nM; ACE plasmid vs empty plasmid
Description: (§3) ACE siRNA (h2) (sc-270350) and Control siRNA-A (sc-37007) were purchased from Santa Cruz Biotechnology, Inc. The ACE expression plasmid was bought from Gen Script (Nanjing) Co., Ltd. Transfections were carried out using Lipofectamine 2000 (Invitrogen) according to the manufacturer's instructions.
as §1
(§4) Next, it was determined whether the cytotoxicity of BPP-PTX was mediated by ACE or not. First, the ACE protein was artificially overexpressed in HEK293T cell lines by transfecting ACE-containing plasmid, and the empty plasmid was transfected as a control. […]

[6] = test system: MDA-MB-231 and MDA-MB-468 cells; test: DAPI staining of nuclei for apoptosis; type: cell-based, human; settings: 10 nM
Description: The occurrence of apoptosis was evaluated by DAPI staining. Cells (4.0×10^5 cells/well) were seeded and incubated with 10 nM PTX or BPP-PTX for 24 h. Following treatment, the cells were washed with phosphate-buffered saline (PBS) and fixed with 4% paraformaldehyde (Sigma-Aldrich) for 15 min at room temperature 25° C., and then stained in the dark with a DAPI solution for 10 min at room temperature 25° C. Thereafter, the cells were washed with PBS and photographed under an inverted fluorescence microscope (Olympus IX71; Olympus, Tokyo, Japan).

MDA-MB-468 cells [7] = test: Annexin V-FITC/PI apoptosis assay, flow cytometry; type: cell-based, human; settings: 10 nM, 48 h
Description: (§5) 1×10^5 MDA-MB-231 or 1.5×10^5 MDA-MB-468 cells per well were cultured in 6-well plates. After attachment, cells were treated with DMSO or 10 nM PTX or BPP-PTX for 48 h and stained with Annexin V (AV) conjugated with FITC and propidium iodide (PI) using the Annexin V-FITC Apoptosis Assay Kit following the manufacturer's instructions. Stained cells were analyzed with the Cyflow Cube flow cytometer (PARTEC, Germany). Data were analyzed using FlowJo 7.6.5 software.

MDA-MB-231 cells = test: Annexin V-FITC/PI apoptosis assay, flow cytometry; type: cell-based, human; settings: 10 nM, 48 h
Description: as §5

MDA-MB-231-siACE cells = test: Cytotoxicity in ACE-knockdown MDA-MB-231-siACE versus MDA-MB-231-siCtr; type: cell-based, human; settings: 10- and 100 nM
Description: as §3, §1, §4

MDA-MB-468-siACE cells = test: Cytotoxicity in ACE-knockdown MDA-MB-468-siACE versus MDA-MB-468-siCtr; type: cell-based, human; settings: 10- and 100 nM
Description: as §3, §1, §4

Row | SMILES | IC50 [1] [nM] | IC50 [2] [nM] | WBC count decrease after the 28-day treatment compared to before treatment ([3]; 2.4 μmol/kg i.p. every 4 days) | WBC count decrease after the 28-day treatment compared to before treatment ([3]; 9.6 μmol/kg i.p. every 4 days) [%] | body weight loss compared with control mice ([3]; day 0 to day 24, low dose 2.4 μmol/kg) | body weight decrease compared with control mice ([3]; 2.4 μmol/kg i.p. every 4 days) | body weight decrease compared with control mice ([3]; 9.6 μmol/kg i.p. every 4 days) [%] | IC50 [4] [nM] | IC50 ([1]; Homo sapiens, HEK-293T) [nM] | average tumor weight (MDA-MB-468 cells [5]; end of 28-day treatment, 2.4 μmol/kg i.p. every 4 days) [g] | tumor growth compared with control mice (MDA-MB-468 cells [5]; i.p. every 4 days, 28 days, PTX 2.4 μmol/kg, BPP-PTX 2.4 and 9.6 μmol/kg) | IC50 ([2]; Homo sapiens) [nM] | cell variability in HEK293T-ACE compared with HEK293T (HEK293T-ACE cells) | nuclei morphology (DAPI) [6] | apoptosis (MDA-MB-468 cells [7]) | apoptosis (MDA-MB-231 cells) | cell variability in siACE cells compared with siCtr cells (MDA-MB-231-siACE cells) | cell variability in siACE cells compared with siCtr cells (MDA-MB-468-siACE cells) | IC50 ([4]; Homo sapiens) [nM]
1 | CC[C@H](C)[C@H](NC(=O)[C@H](CCC(N)=O)NC(=O)[C@@H]1CCCN1C(=O)[C@H](CCCNC(=N)N)NC(=O)[C@@H]1CCCN1C(=O)[C@H](Cc1c[nH]c2ccccc12)NC(=O)[C@H](CCC(=O)O)NC(=O)CCC(=O)O[C@@H](C(=O)O[C@H]1C[C@@]2(O)[C@@H](OC(=O)c3ccccc3)[C@@H]3[C@]4(OC(C)=O)CO[C@@H]4C[C@H](O)[C@@]3(C)C(=O)[C@H](OC(C)=O)C(=C1C)C2(C)C)[C@@H](NC(=O)c1ccccc1)c1ccccc1)C(=O)N1CCC[C@H]1C(=O)N1CCC[C@H]1C(N)=O [BPP-PTX] ({Paclitaxel(2'-O-succinyl)}-EWPRPQIPP-NH2) | 616 | 9.5 | about 17% | ~22 | no body weight loss | ~2.8% | ~6.4 | 12.3 |  |  |  |  |  |  |  |  |  |  | 
2 | CC(=O)O[C@H]1C(=O)[C@@]2(C)[C@H]([C@H](OC(=O)c3ccccc3)[C@]3(O)C[C@H](OC(=O)[C@H](O)[C@@H](NC(=O)c4ccccc4)c4ccccc4)C(C)=C1C3(C)C)[C@]1(OC(C)=O)CO[C@@H]1C[C@@H]2O [PTX, Paclitaxel] |  |  | about 52% |  |  | about 6.2% |  |  | 6.7 | 0.26 | significantly lower; also recorded: clear reduction | 3.1 | No differences | condensed and fragmented | induced apoptosis | induced apoptosis | no difference | no difference | 3
